The subject of data set [1] is rats. Nature of the data set: Conditioned place preference (CPP) test of drug-induced reinforcement. It is filed as in vivo, rat. As to the method:
A three compartment conditioned place preference (CPP) apparatus with an unbiased design was used to monitor drug-induced reinforcement. The apparatus was made up of transparent plastic Perspex. The compartments were separated by sliding guillotine doors.
The end (preference) compartments (26×26×26 cm each) provided distinct contexts, with one compartment having black horizontal stripes on side walls, the other compartment had vertical black stripes. […] The experiment was conducted in three distinct phases: pre-conditioning, conditioning and post-conditioning.
An animal introduced in the CPP apparatus from the middle compartment and guillotine doors were raised to open. The animal was allowed to explore the entire apparatus for 10 min. Time spent in each compartment was recorded.
The test was carried out on day 13, one day after the last conditioning session, in a drug free state. Each animal was tested only once. As in the pre-conditioning phase, the guillotine doors were removed and rat was given access to the entire apparatus for 10 min. Time spent in ‘Drug’ assigned compartment was monitored.

Data set [2] has as its system rats.
Procedure: This phase started one day after pre-conditioning phase, animals were randomly assigned to six groups, each containing six animals: (i) buspirone 0 mg/kg+saline, (ii) buspirone 0 mg/kg+morphine, (iii) buspirone 1 mg/kg+saline, (iv) buspirone 1 mg/kg+morphine, (v) buspirone 2 mg/kg+saline and (vi) buspirone 2 mg/kg+morphine injected animals. Over next 12 days (day 1 to day 12) animals went through conditioning (one session per day) in which they were confined to either the horizontal or vertical stripe compartment by raising the respective guillotine door. On day 1, 3, 5, 7, 9 and 11 animals of all groups were injected with saline (1 ml/kg) and placed immediately in the assigned ‘Non-Drug’ compartment for 30 min. After which the animals were kept in their home cages. On every other day, i.e. day 2, 4, 6, 8, 10, and 12 control and test animals were injected with saline, buspirone and/or morphine as assigned above. Immediately after injection the animals were placed in the ‘Drug’ compartment for 30 min. The animals picked from the drug compartment were placed back in their home cages.
Motor behavior was also monitored during conditioning phase. Animals confined to a compartment were moving across the compartment. Activity scores were counted as number of cage crossings for 10 min starting 5 min post injection.
Data set [3] has as its system rats. The following applies: buspirone and apomorphine co-administered to rats; cited from earlier work.
The test system of data set [4] is rats. The source holds these as a separate data set.
Procedure: After post-conditioning the challenge dose of morphine (7.5 mg/kg) was given. The hot plate test was conducted 30 min after challenge dose to measure difference in heat-induced nociception in the six groups. The latency (either jumping or hind-paw licking) and number of licks were monitored for each animal. The temperature of hot plate was kept 52° C. and cutoff time was 30 sec.
In data set [5] the target is T1, 5-HT-1A receptor (Rattus norvegicus, UniProt P19327).
T1 sequence (P19327 1-422): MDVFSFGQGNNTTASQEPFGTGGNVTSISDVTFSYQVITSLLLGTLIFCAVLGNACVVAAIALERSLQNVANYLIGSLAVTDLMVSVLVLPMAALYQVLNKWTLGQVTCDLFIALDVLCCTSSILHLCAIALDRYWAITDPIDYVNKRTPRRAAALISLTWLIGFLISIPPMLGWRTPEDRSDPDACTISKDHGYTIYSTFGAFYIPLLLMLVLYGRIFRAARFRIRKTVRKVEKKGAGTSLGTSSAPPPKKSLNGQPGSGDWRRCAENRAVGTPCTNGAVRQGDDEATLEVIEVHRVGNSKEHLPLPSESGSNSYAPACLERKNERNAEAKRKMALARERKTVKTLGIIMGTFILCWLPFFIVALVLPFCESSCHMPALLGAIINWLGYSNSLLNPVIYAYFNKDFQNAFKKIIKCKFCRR
The following applies: subcutaneous injection; cited from earlier work.

The target in data set [6] is T1, 5-HT-1A receptor. Also noted: host or cells: rat, whole animal (in vivo). The following applies: rats; cited from earlier work.
The test system of the next data set is monkeys. The following applies: cited from earlier work.
The test system of another data set is humans. The following applies: cited from earlier work.
A further data set deals with rhesus monkeys. The following applies: fluoxetine with morphine; cited from earlier work.
Data set [7] relates to rats. The following applies: fluoxetine with morphine; cited from earlier work.
Where [8] appears, read: all three doses of morphine vs saline treated animals, FIG. 3.

This is an account of results in patent publication US20170266184A1 (priority 2016, published 2017).

Where two headings read alike, the source gives them in different places.

On to `O=C1CC2(CCCC2)CC(=O)N1CCCCN1CCN(c2ncccn2)CC1` [buspirone], for which the “Morphine-induced increases in post-conditioning time spent in drug paired compartment” value in the data set on rats [1] (buspirone 1 mg or 2 mg/kg co-administered with morphine 7.5 mg/kg, FIG. 1A) is reported as “significantly attenuates”. Besides, the “Reinforcing effects of morphine (calculated percentage reinforcement)” value in the data set with rats [1] (buspirone 1 mg or 2 mg/kg co-administered with morphine 7.5 mg/kg, FIG. 1B) is on record as “do not occur”. Further, the “Reduction of addiction to morphine” value in the data set on rats [1] (buspirone co-injected animals) was “more than 90%”. In the data set on rats [2] (animals co-treated with buspirone), the “Calculated percentage psychosis like effects of morphine” value is given as “blocked”. In addition, the “Psychosis like effects of morphine” value was “blocked” with rats [2] (co-administration of 1 mg/kg buspirone, FIG. 2B) and “attenuated” in the data set on rats [2] (co-administration of 2 mg/kg buspirone, FIG. 2B). Also, the “Tolerance in motor depressant effects of morphine” value in the data set on rats [2] (co-treated with buspirone 1 mg/kg or 2 mg/kg, FIG. 2A) is recorded as “not produced”. In addition, the Addiction to apomorphine entry in the data set on rats [3] was “not produced”. The “Analgesic effects of morphine” value with rats [4] (buspirone co-injected animals) is “potentiated”.
Regarding `CCCN(CCC)C1CCc2cccc(O)c2C1` (centres unmarked) [8-OH-DPAT, 8-hydroxy-N,N-dipropyl-2-aminotetralin], the Analgesic effect result at 5-HT-1A receptor [5] is given as “produces an analgesic effect”. Also, the Anti-nociceptive effects result on 5-HT-1A receptor [6] was “has anti-nociceptive effects”.
Take `CN(C)CCCN1c2ccccc2CCc2ccc(Cl)cc21` [clomipramine]: the “Anti-nociceptive effects of opioids” value in the data set with monkeys is reported as “enhances”.
With `CNCCC(Oc1ccc(C(F)(F)F)cc1)c1ccccc1` (centres unmarked) [fluoxetine], in the data set with humans, the “Analgesic effects of morphine” value is listed as “increase”. Besides, the “Anti-nociceptive effects of morphine” value with rhesus monkeys and in the data set with rats [7] was “potentiates” throughout.
For the compound `CCNC(C)Cc1cccc(C(F)(F)F)c1` (centres unmarked) [fenfluramine], in the data set with humans, the “Analgesic effects of morphine” value is “increase”.
For the compound `CN1CC[C@]23c4c5ccc(O)c4O[C@H]2[C@@H](O)C=C[C@H]3[C@H]1C5` [morphine], in the data set on rats [1] (morphine 7.5 mg/kg alone, repeated, FIG. 1A), the “Post-conditioning time spent in the drug paired compartment” value was “much higher”. Moreover, the Calculated percentage reinforcement result in the data set with rats [1] (morphine 7.5 mg/kg alone, FIG. 1B) is listed as “reinforcing”. In the data set with rats [2] (1st and 2nd injection of morphine, FIG. 2A), the Motor activity result is listed as “decrease”. Besides, the “Decreases in motor activity (tolerance in motor depressant effect)” value in the data set with rats [2] (3rd to 6th administration of morphine, day 6, 8, 10 and 12, FIG. 2A) was “do not occur”. Moreover, the Psychosis like effects entry in the data set on rats [2] (morphine alone, FIG. 2B) is reported as “produced psychosis like effects”. Moreover, in the data set on rats [4] (7.5 mg/kg vs 5 mg/kg morphine, FIG. 3), the “Increase in latency time in paw licking, comparison of doses” value is listed as “greater at 7.5 mg/kg than 5 mg/kg”. Further, the “Latency time in paw licking” value in the data set on rats [4] (setting [8]) was “increase”. For the same compound, the Number of licks entry was “reduced” in the data set with rats [4] (setting [8]) and “higher” in the data set with rats [4] (repeated morphine treated animals, after morphine challenge, FIG. 4). Moreover, in the data set on rats [4] (repeated morphine treated animals, 30 min after 7.5 mg/kg morphine challenge, FIG. 4), the “Latency time to first lick” value is “reduced”.
